# Assay results from patent publication US10471046B2, “Method for treating, preventing, or reducing the risk of skin infection” (Melinta Subsidiary Corp., priority 2014, dated 2019).
# System: S. aureus
# Assay: Minimum inhibitory concentrations (MICs) for S. aureus of exemplary compounds (Table 2)
# Assay type: cell-based
# Conditions: Staphylococcus aureus, minimum inhibitory concentrations for S. aureus; read-out: MICs
# In short: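 Growth of S. aureus in media with or without compound, by broth microdilution in microtiter trays following NCCLS M7-A5 guidelines. Values are MICs in μg/mL.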
row,SMILES,MIC
1,"CC(=O)NC[C@H]1CN(c2ccc(-c3ccc(/C=N/Nc4nccc(C(F)(F)F)n4)cc3)c(F)c2)C(=O)O1 [Compound 2042, N-(3-{2-Fluoro-4′-[(4-trifluoromethyl-pyrimidin-2-yl)-hydrazonomethyl]-biphenyl-4-yl}-2-oxo-oxazolidin-5-(S)-ylmethyl)-acetamide]",128 µg/mL
2,"CC(=O)NC[C@H]1CN(c2ccc(-c3ccc(Cn4cnc(CO)c4)cc3)c(F)c2)C(=O)O1 [Compound 1050, N-{3-[2-Fluoro-4′-(4-hydroxymethyl-imidazol-1-ylmethyl)-biphenyl-4-yl]-2-oxo-oxazolidin-5-(S)-ylmethyl}-acetamide]",2 µg/mL
3,"CC(=O)NC[C@H]1CN(c2ccc(-c3ccc(CNS(=O)(=O)c4cn(C)cn4)cc3)c(F)c2)C(=O)O1 [Compound 2043, N-(3-{2-Fluoro-4′-[(1-methyl-1H-imidazole-4-sulfonylamino)-methyl]-biphenyl-4-yl}-2-oxo-oxazolidin-5-(S)-ylmethyl)-acetamide]",2 µg/mL
4,"CC(=O)NC[C@H]1CN(c2ccc(-c3ccc(CSc4ncnn4C)cc3)c(F)c2)C(=O)O1 [Compound 2033, N-{3-[2-Fluoro-4′-(2-methyl-2H-[1,2,4]triazol-3-ylsulfanylmethyl)-biphenyl-4-yl]-2-oxo-oxazolidin-5-(S)-ylmethyl}-acetamide]",1 µg/mL
5,"CC(=O)NC[C@H]1CN(c2ccc(-c3ccc(CNC(=O)c4ccc5cc[nH]c5c4)cc3)c(F)c2)C(=O)O1 [Compound 4011, 1H-Indole-6-carboxylic acid {4′-[5-(S)-(acetylamino-methyl)-2-oxo-oxazolidin-3-yl]-2′-fluoro-biphenyl-4-ylmethyl}-amide]",1 µg/mL
6,"CC(=O)NC[C@H]1CN(c2ccc(-c3ccc(CNC(=O)/C=C/c4cncnc4)cc3)c(F)c2)C(=O)O1 [Compound 4006, N-{4′-[5-(S)-(Acetylamino-methyl)-2-oxo-oxazolidin-3-yl]-2′-fluoro-biphenyl-4-ylmethyl}-3-pyrimidin-5-yl-acrylamide]",8 µg/mL
7,"CSC1=NCCN1Cc1ccc(-c2ccc(N3C[C@H](CNC(C)=O)OC3=O)cc2F)cc1 [Compound 1078, N-{3-[2-Fluoro-4′-(2-methylsulfanyl-4,5-dihydro-imidazol-1-ylmethyl)-biphenyl-4-yl]-2-oxo-oxazolidin-5-(S)-ylmethyl}-acetamide]",2 µg/mL
8,"CC(=O)NC[C@H]1CN(c2ccc(-c3ccc(Cn4cccc4)cc3)c(F)c2)C(=O)O1 [Compound 1054, N-[3-(2-Fluoro-4′-pyrrol-1-ylmethyl-biphenyl-4-yl)-2-oxo-oxazolidin-5-(S)-ylmethyl]-acetamide]",0.5 µg/mL
9,"CC(=O)NC[C@H]1CN(c2ccc(-c3ccc(C[S+]([O-])c4nc(C)cs4)cc3)c(F)c2)C(=O)O1 (stereo partly drawn) [Compound 2037, N-{3-[2-Fluoro-4′-(4-methyl-thiazole-2-sulfinylmethyl)-biphenyl-4-yl]-2-oxo-oxazolidin-5-(S)-ylmethyl}-acetamide]",1 µg/mL
10,"CC(=O)NC[C@H]1CN(c2ccc(-c3ccc(C(NC(=O)OCc4ccccc4)c4nnn(C)n4)cc3)c(F)c2)C(=O)O1 (mixture of isomers) [Compound 1041, [{4′-[5-(S)-(Acetylamino-methyl)-2-oxo-oxazolidin-3-yl]-2′-fluoro-biphenyl-4-yl}-(2-methyl-2H-tetrazol-5-(R/S)-yl)-methyl]-carbamic acid benzyl ester]",1 µg/mL
11,"CC(=O)NC[C@H]1CN(c2ccc(-c3ccc(S(=O)(=O)NCCc4ccccn4)cc3)c(F)c2)C(=O)O1 [Compound 3007, N-{3-[2-Fluoro-4′-(2-pyridin-2-yl-ethylsulfamoyl)-biphenyl-4-yl]-2-oxo-oxazolidin-5-(S)-ylmethyl}-acetamide]",1 µg/mL
12,"CC(=O)NC[C@H]1CN(c2ccc(-c3ccc(Cn4nnc(C)n4)cc3)c(F)c2)C(=O)O1 [Compound 1059, N-{3-[2-Fluoro-4′-(5-methyl-tetrazol-2-ylmethyl)-biphenyl-4-yl]-2-oxo-oxazolidin-5-(S)-ylmethyl}-acetamide]",0.5 µg/mL
13,"CC(=O)NC[C@H]1CN(c2ccc(-c3ccc(Cn4cnnn4)nc3)c(F)c2)C(=O)O1 [Compound 1035, N-{3-[3-Fluoro-4-(6-tetrazol-1-ylmethyl-pyridin-3-yl)-phenyl]-2-oxo-oxazolidin-5-(S)-ylmethyl}-acetamide]",0.5 µg/mL
14,"CC(=O)NC[C@H]1CN(c2ccc(-c3ccc(CSc4nnnn4CCN(C)C)cc3)c(F)c2)C(=O)O1 [Compound 2027, N-(3-{4′-[1-(2-Dimethylamino-ethyl)-1H-tetrazol-5-ylsulfanylmethyl]-2-fluoro-biphenyl-4-yl}-2-oxo-oxazolidin-5-(S)-ylmethyl)-acetamide]",1 µg/mL

# Next, values leading:
row,MIC,SMILES
1,2 µg/mL,"CC(=O)NC[C@H]1CN(c2ccc(-c3ccc(CNCCc4ccc(S(N)(=O)=O)cc4)cc3)c(F)c2)C(=O)O1 [Compound 4094, N-[3-(2-Fluoro-4′-{[2-(4-sulfamoyl-phenyl)-ethylamino]-methyl}-biphenyl-4-yl)-2-oxo-oxazolidin-5-(S)-ylmethyl]-acetamide]"
2,16 µg/mL,"CC(=O)NC[C@H]1CN(c2ccc(-c3ccc(CNCC4CCN(C(=O)OC(C)(C)C)C4)cc3)c(F)c2)C(=O)O1 (stereo partly drawn) [Compound 4317, 3-[({4′-[5-(S)-(Acetylamino-methyl)-2-oxo-oxazolidin-3-yl]-2′-fluoro-biphenyl-4-ylmethyl}-amino)-methyl]-pyrrolidine-1-carboxylic acid tert-butyl ester]"
3,0.25 µg/mL,"CC(=O)NC[C@H]1CN(c2ccc(-c3ccc(C(=O)NCc4ccccn4)cc3)c(F)c2)C(=O)O1 [Compound 4110, 4′-[5-(S)-(Acetylamino-methyl)-2-oxo-oxazolidin-3-yl]-2′-fluoro-biphenyl-4-carboxylic acid (pyridin-2-ylmethyl)-amide]"
4,16 µg/mL,"CC(=O)NC[C@H]1CN(c2ccc(-c3ccc(CNCc4nnn[nH]4)cc3)c(F)c2)C(=O)O1 [Compound 4282, N-[3-(2-Fluoro-4′-{[(1H-tetrazol-5-ylmethyl)-amino]-methyl}-biphenyl-4-yl)-2-oxo-oxazolidin-5-(S)-ylmethyl]-acetamide]"
5,1 µg/mL,"CC(=O)NC[C@H]1CN(c2ccc(-c3ccc(CNCc4c(C)noc4C)cc3)c(F)c2)C(=O)O1 [Compound 4109, N-[3-(4′-{[(3,5-Dimethyl-isoxazol-4-ylmethyl)-amino]-methyl}-2-fluoro-biphenyl-4-yl)-2-oxo-oxazolidin-5-(S)-ylmethyl]-acetamide]"
6,1 µg/mL,"CC(=O)NC[C@H]1CN(c2ccc(-c3ccc(C(=O)NCc4ccccn4)nc3)c(F)c2)C(=O)O1 [Compound 4187, 5-{4-[5-(S)-(Acetylamino-methyl)-2-oxo-oxazolidin-3-yl]-2-fluoro-phenyl}-pyridine-2-carboxylic acid (pyridin-2-ylmethyl)-amide]"
7,2 µg/mL,"CC(=O)NC[C@H]1CN(c2ccc(-c3ccc(CNCc4c[nH]c5ccccc45)cc3)c(F)c2)C(=O)O1 [Compound 4083, N-[3-(2-Fluoro-4′-{[(1H-indol-3-ylmethyl)-amino]-methyl}-biphenyl-4-yl)-2-oxo-oxazolidin-5-(S)-ylmethyl]-acetamide]"
8,8 µg/mL,"CC(=O)NC[C@H]1CN(c2ccc(-c3ccc(CNCc4cccnc4N4CCOCC4)cc3)c(F)c2)C(=O)O1 [Compound 4117, N-[3-(2-Fluoro-4′-{[(2-morpholin-4-yl-pyridin-3-ylmethyl)-amino]-methyl}-biphenyl-4-yl)-2-oxo-oxazolidin-5-(S)-ylmethyl]-acetamide]"
9,0.25 µg/mL,"CC(=O)NC[C@H]1CN(c2ccc(-c3ccc(C(=O)NCCc4scnc4C)cc3)c(F)c2)C(=O)O1 [Compound 4112, 4′-[5-(S)-(Acetylamino-methyl)-2-oxo-oxazolidin-3-yl]-2′-fluoro-biphenyl-4-carboxylic acid [2-(4-methyl-thiazol-5-yl)-ethyl]-amide]"
10,8 µg/mL,"CC(=O)NC[C@H]1CN(c2ccc(-c3ccc(CNC(=O)[C@@H](N)Cc4ccccn4)cc3)c(F)c2)C(=O)O1 [Compound 4302, N-{4′-[5-(S)-(Acetylamino-methyl)-2-oxo-oxazolidin-3-yl]-2′-fluoro-biphenyl-4-ylmethyl}-2-(S)-amino-3-pyridin-2-yl-propionamide]"
11,1 µg/mL,"CC(=O)NC[C@H]1CN(c2ccc(-c3ccc(CNCCSc4cnn[nH]4)cc3)c(F)c2)C(=O)O1 [Compound 5001, N-[3-(2-Fluoro-4′-{[2-(3H-[1,2,3]triazol-4-ylsulfanyl)-ethylamino]-methyl}-biphenyl-4-yl)-2-oxo-oxazolidin-5-(S)-ylmethyl]-acetamide]"
12,2 µg/mL,"CCc1ccc(CNCc2ccc(-c3ccc(N4C[C@H](CNC(C)=O)OC4=O)cc3F)cc2)s1 [Compound 4162, N-[3-(4′-{[(5-Ethyl-thiophen-2-ylmethyl)-amino]-methyl}-2-fluoro-biphenyl-4-yl)-2-oxo-oxazolidin-5-(S)-ylmethyl]-acetamide]"
13,0.5 µg/mL,"CC(=O)NC[C@H]1CN(c2ccc(-c3ccc(CSCc4ccccn4)cc3)c(F)c2)C(=O)O1 [Compound 4216, N-{3-[2-Fluoro-4′-(pyridin-2-ylmethylsulfanylmethyl)-biphenyl-4-yl]-2-oxo-oxazolidin-5-(S)-ylmethyl}-acetamide]"
14,0.25 µg/mL,"CC(=O)NC[C@H]1CN(c2ccc(-c3ccc(CNNC(=O)c4ccncc4)cc3)c(F)c2)C(=O)O1 [Compound 4236, N-(3-{2-Fluoro-4′-[N′-(pyridine-4-carbonyl)-hydrazinomethyl]-biphenyl-4-yl}-2-oxo-oxazolidin-5-(S)-ylmethyl)-acetamide]"
15,2 µg/mL,"CC(=O)NC[C@H]1CN(c2ccc(-c3ccc(CNCc4ccc5ncccc5c4)cc3)c(F)c2)C(=O)O1 [Compound 4071, N-[3-(2-Fluoro-4′-{[(quinolin-6-ylmethyl)-amino]-methyl}-biphenyl-4-yl)-2-oxo-oxazolidin-5-(S)-ylmethyl]-acetamide]"
16,4 µg/mL,"CC(=O)NC[C@H]1CN(c2ccc(-c3ccc(C(CO)NCc4csnn4)cc3)c(F)c2)C(=O)O1 (mixture of isomers) [Compound 4171, N-[3-(2-Fluoro-4′-{2-hydroxy-1-[([1,2,3]thiadiazol-4-(R/S)-ylmethyl)-amino]-ethyl}-biphenyl-4-yl)-2-oxo-oxazolidin-5-(S)-ylmethyl]-acetamide]"
